# From ChEMBL document CHEMBL1201862, “PubChem BioAssay data set” (2004)
#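 The compound was tested at five concentrations on cells cultured in 96-well plates, with a 48-hour exposure period. GI50: concentration for 50% inhibition of growth.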 Activity calls are given as the source filed them. Rule as the data show it: active = GI50 up to about 1.1 µM and inactive = higher.
# Columns and labels:
# Assay in all cases: NCI-60 cell line screen, 48 h
# SNB-75 = test system: SNB-75
# RXF 393 = test system: RXF 393
# SF-295 = test system: SF-295
# CAKI-1 = test system: CAKI-1
# SF-539 = test system: SF-539
# Malme-3M = test system: Malme-3M
# KM-20L2 = test system: KM-20L2
# NCI-H23 = test system: NCI-H23
# A549 = test system: A549
# OVCAR-5 = test system: OVCAR-5
# SK-MEL-28 = test system: SK-MEL-28
# HCT-116 = test system: HCT-116
# SW-620 = test system: SW-620
# SK-OV-3 = test system: SK-OV-3
# HL-60 = test system: HL-60
# A498 = test system: A498
# HCT-15 = test system: HCT-15
# MCF7 = test system: MCF7
# DU-145 = test system: DU-145
# MDA-MB-435 = test system: MDA-MB-435
SMILES,GI50 (SNB-75),GI50 (RXF 393),GI50 (SF-295),GI50 (CAKI-1),GI50 (SF-539),GI50 (Malme-3M),GI50 (KM-20L2),GI50 (NCI-H23),GI50 (A549),GI50 (OVCAR-5),GI50 (SK-MEL-28),GI50 (HCT-116),GI50 (SW-620),GI50 (SK-OV-3),GI50 (HL-60),GI50 (A498),GI50 (HCT-15),GI50 (MCF7),GI50 (DU-145),GI50 (MDA-MB-435)
CCCCN(CCCC)CCCn1cnc2ncccc2c1=O,> 100 µM (inactive),> 100 µM (inactive),> 100 µM (inactive),> 100 µM (inactive),> 100 µM (inactive),> 100 µM (inactive),> 100 µM (inactive),> 100 µM (inactive),> 100 µM (inactive),> 100 µM (inactive),> 100 µM (inactive),> 100 µM (inactive),> 100 µM (inactive),> 100 µM (inactive),,,,,,
O=C(CCC(=O)C(C(=O)c1ccccc1)c1ccccc1)Nc1cccc(C(F)(F)F)c1 (stereo not drawn),,,> 100 µM (inactive),> 100 µM (inactive),> 100 µM (inactive),> 100 µM (inactive),> 100 µM (inactive),> 100 µM (inactive),> 100 µM (inactive),> 100 µM (inactive),,> 100 µM (inactive),> 100 µM (inactive),> 100 µM (inactive),> 100 µM (inactive),> 100 µM (inactive),> 100 µM,,,
COc1c2c(cc3c1C(=O)Cc1ccc4c(c1CN(C)CC3)OCO4)OCO2,26.4 µM (inactive),> 100 µM (inactive),> 100 µM (inactive),79.3 µM (inactive),> 100 µM (inactive),> 100 µM (inactive),38.2 µM (inactive),> 100 µM (inactive),> 100 µM (inactive),29.3 µM (inactive),> 100 µM (inactive),52.2 µM (inactive),> 100 µM (inactive),> 100 µM (inactive),30.1 µM (inactive),,> 100 µM,,,
CC(C)(C)C(=O)Nc1ccccc1Br,> 100 µM (inactive),> 100 µM (inactive),> 100 µM (inactive),> 100 µM (inactive),,> 100 µM (inactive),> 100 µM (inactive),,> 100 µM (inactive),> 100 µM (inactive),> 100 µM (inactive),> 100 µM (inactive),> 100 µM (inactive),> 100 µM (inactive),> 100 µM (inactive),,> 100 µM,,,
CSc1ccc2c(cc1=O)C(NC(=O)c1ccc(OC(C)=O)cc1)CCc1cc(O)c(O)c(O)c1-2 (stereo not drawn),20 µM (inactive),,19.1 µM (inactive),,19.1 µM (inactive),48.9 µM (inactive),37.5 µM (inactive),25.3 µM (inactive),33.9 µM (inactive),25.1 µM (inactive),61.7 µM (inactive),17.3 µM (inactive),13.1 µM (inactive),38.4 µM (inactive),3.31 µM (inactive),57 µM (inactive),18.8 µM,,,
COc1ccc(-c2onc(-c3ccc([N+](=O)[O-])cc3)c2C2=NCCN2)cc1,20.9 µM (inactive),32.3 µM (inactive),35.2 µM (inactive),> 100 µM (inactive),38 µM (inactive),> 100 µM (inactive),> 100 µM (inactive),> 100 µM (inactive),> 100 µM (inactive),> 100 µM (inactive),> 100 µM (inactive),36 µM (inactive),> 100 µM (inactive),,> 100 µM (inactive),,> 100 µM,,,
O=c1[nH]c2c(c3ccccc13)CCc1ccccc1-2,> 100 µM (inactive),> 100 µM (inactive),> 100 µM (inactive),> 100 µM (inactive),> 100 µM (inactive),> 100 µM (inactive),> 100 µM (inactive),> 100 µM (inactive),> 100 µM (inactive),> 100 µM (inactive),> 100 µM (inactive),> 100 µM (inactive),> 100 µM (inactive),> 100 µM (inactive),,,> 100 µM,,,
N#CC(C#N)=c1c2nsnc2c(=C(C#N)C#N)c2nsnc12,1.51 µM (inactive),1.28 µM (inactive),1.89 µM (inactive),1.86 µM (inactive),1.93 µM (inactive),1.65 µM (inactive),1.8 µM (inactive),2.01 µM (inactive),3.6 µM (inactive),1.89 µM (inactive),1.87 µM (inactive),1.98 µM (inactive),1.47 µM (inactive),,2.27 µM (inactive),,,,,
CCC(c1ccc(OC)cc1)C1NC(=S)NC1=O (stereo not drawn),> 50 µM (inactive),> 50 µM (inactive),> 50 µM (inactive),> 50 µM (inactive),> 50 µM (inactive),> 50 µM (inactive),,> 50 µM (inactive),> 50 µM (inactive),> 50 µM (inactive),> 50 µM (inactive),> 50 µM (inactive),> 50 µM (inactive),> 50 µM (inactive),12.4 µM (inactive),> 50 µM (inactive),> 50 µM,> 50 µM (inactive),> 50 µM (inactive),> 50 µM (inactive)
Cc1nc2c(n1CCC(C)C)C(=O)c1ccccc1C2=O,20.1 µM (inactive),23.4 µM (inactive),21.3 µM (inactive),,12 µM (inactive),24.1 µM (inactive),28.5 µM (inactive),22.3 µM (inactive),30.4 µM (inactive),,17.3 µM (inactive),6.84 µM (inactive),37.9 µM (inactive),38.4 µM (inactive),6 µM (inactive),,11.9 µM,,,
N#Cc1ccc(NC(=O)C(CC(=O)OCc2ccccc2)NC(=O)OCc2ccccc2)cc1 (stereo not drawn),> 10 µM (inactive),> 10 µM (inactive),> 10 µM (inactive),> 10 µM (inactive),> 10 µM (inactive),5.74 µM (inactive),,> 10 µM (inactive),> 10 µM (inactive),> 10 µM (inactive),> 10 µM (inactive),> 10 µM (inactive),> 10 µM (inactive),> 10 µM (inactive),> 10 µM (inactive),> 10 µM (inactive),> 10 µM,> 10 µM (inactive),3.72 µM (inactive),> 10 µM (inactive)
O=C(CC12C3C4C1C1C2C3C41CC(=O)NO)NO (stereo not drawn),29.6 µM (inactive),,27.1 µM (inactive),71.8 µM (inactive),46.3 µM (inactive),31 µM (inactive),38.2 µM (inactive),78.2 µM (inactive),37.8 µM (inactive),> 100 µM (inactive),60.4 µM (inactive),42.4 µM (inactive),38.9 µM (inactive),,36.9 µM (inactive),28.8 µM (inactive),44.2 µM,,,
CCOC(=O)NC(Nc1ccc(F)cc1)(C(=O)OCC)C(F)(F)F (stereo not drawn),> 100 µM (inactive),> 100 µM (inactive),8.38 µM (inactive),> 100 µM (inactive),> 100 µM (inactive),> 100 µM (inactive),,> 100 µM (inactive),10.5 µM (inactive),> 100 µM (inactive),> 88.5 µM (inactive),3.12 µM (inactive),1.22 µM (inactive),> 100 µM (inactive),0.526 µM (active),> 100 µM (inactive),29.6 µM,> 66.7 µM (inactive),> 21.5 µM (inactive),0.268 µM (active)
